Laboratory results published in patent US7138361B2, “Herbicidal heterocycles” (E. I. du Pont de Nemours and Company, priority 2000, dated 2006).

How the values were obtained:
Type in all cases: in vivo
[1] = system: morningglory (Ipomoea hederacea); test: Test C preemergence
Text: (§1) Seeds of plant species selected from bermudagrass (Cynodon dactylon), Surinam grass (Brachiaria decumbens), cocklebur (Xanthium strumarium), corn (Zea mays), crabgrass (Digitaria sanguinalis), woolly cupgrass (Eriochloa villosa), giant foxtail (Setaria faberii), goosegrass (Eleusine indica), johnsongrass (Sorghum halepense), kochia (Kochia scoparia), lambsquarters (Chenopodium album), morningglory (Ipomoea hederacea), yellow nutsedge (Cyperus esculentus), pigweed (Amaranthus retroflexus), common ragweed (Ambrosia elatior), soybean (Glycine max) and velvetleaf (Abutilon theophrasti) were planted and treated preemergence with test chemicals formulated in a non-phytotoxic solvent mixture which included a surfactant.
(§2) At the same time, plants selected from these crop and weed species and also winter barley (Hordeum vulgare), blackgrass (Alopecurus myosuroides), canary grass (Phalaris minor), chickweed (Stellaria media), downy brome (Bromus tectorum), green foxtail (Setaria viridis), Italian ryegrass (Lolium multiflorum), wheat (Triticum aestivum), wild oat (Avena fatua) and windgrass (Apera spica-venti) were treated with postemergence applications of some of the test chemicals formulated in the same manner. Plants ranged in height from 2 to 18 cm (1- to 4-leaf stage) for postemergence treatments. Plant species in the flooded paddy test consisted of rice (Oryza saliva), smallflower flatsedge (Cyperus difformis), duck salad (Heteranthera limosa) and barnyardgrass (Echinochloa crus-galli) grown to the 2-leaf stage for testing. Treated plants and controls were maintained in a greenhouse for 12 to 14 days, after which time all species were compared to controls and visually evaluated. Plant response ratings, summarized in Table C, are based on a scale of 0 to 100 where 0 is no effect and 100 is complete control. A dash (-) response means no test result.

[2] = system: cocklebur (Xanthium strumarium); test: Test C preemergence
Text: as §1, §2

[3] = system: johnsongrass (Sorghum halepense); test: Test C preemergence
Text: as §1, §2

[4] = system: lambsquarters (Chenopodium album); test: Test C preemergence
Text: as §1, §2

Nightshade = test: Test C preemergence
Text: as §1, §2

[5] = system: Surinam grass (Brachiaria decumbens); test: Test C preemergence
Text: as §1, §2

[6] = system: yellow nutsedge (Cyperus esculentus); test: Test C preemergence
Text: as §1, §2

[7] = system: crabgrass (Digitaria sanguinalis); test: Test C preemergence
Text: as §1, §2

[8] = system: velvetleaf (Abutilon theophrasti); test: Test C preemergence
Text: as §1, §2

[9] = system: woolly cupgrass (Eriochloa villosa); test: Test C preemergence
Text: as §1, §2

soybean (Glycine max) = test: Test C preemergence
Text: as §1, §2

Sunflower [10] = test: Test C preemergence; conditions: Rate 125 g/ha; scale 0 to 100, 0 no effect, 100 complete control
Text: as §1, §2

[11] = system: bermudagrass (Cynodon dactylon); test: Test C preemergence
Text: as §1, §2

[12] = system: goosegrass (Eleusine indica); test: Test C preemergence
Text: as §1, §2

corn (Zea mays) = test: Test C preemergence
Text: as §1, §2

[13] = system: giant foxtail (Setaria faberii); test: Test C preemergence
Text: as §1, §2

[14] = system: pigweed (Amaranthus retroflexus); test: Test C preemergence
Text: as §1, §2

kochia (Kochia scoparia) = test: Test C preemergence
Text: as §1, §2

Sunflower [15] = test: Test C preemergence; conditions: Rate 500 g/ha, visual evaluation after 12 to 14 days
[16] = system: smallflower flatsedge (Cyperus difformis); test: Test C flooded paddy test; conditions: for Flatsedge plant response rating: Flooded Paddy, scale 0 to 100, 0 no effect, 100 complete control; for Plant response rating, Flatsedge: flooded paddy test, scale 0 to 100 (0 no effect, 100 complete control)
In short: (§3)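 Visually assessed vs untreated controls 12–14 d post-treatment (greenhouse). Flooded paddy plants were at the 2-leaf stage; scale 0 = no effect, 100 = complete control.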

[17] = system: barnyardgrass (Echinochloa crus-galli); test: Test C flooded paddy test; conditions: for Barnyardgrass plant response rating: Flooded Paddy, scale 0 to 100, 0 no effect, 100 complete control; for Plant response rating, Barnyardgrass: flooded paddy test, scale 0 to 100 (0 no effect, 100 complete control)
In short: as §3

[18] = system: duck salad (Heteranthera limosa); test: Test C flooded paddy test; conditions: for Ducksalad plant response rating: Flooded Paddy, scale 0 to 100, 0 no effect, 100 complete control; for Plant response rating, Ducksalad: flooded paddy test, scale 0 to 100 (0 no effect, 100 complete control)
In short: as §3

[19] = Rate 125 g/ha, scale 0 to 100, 0 no effect, 100 complete control
[20] = preemergence, Rate 62 g/ha, scale 0 to 100
[21] = preemergence, Rate 500 g/ha, visual evaluation after 12 to 14 days
[22] = preemergence, Rate 250 g/ha, scale 0 to 100, 0 no effect, 100 complete control

## CCCC(C)c1ccn(C2CCN(c3ccc(Cl)c(OC)c3)C2=O)n1 (stereo not drawn) [Compound 121]
[1]; [19]
  Plant response rating, Morningglory: 10
[1]; [20]
  Plant response rating, Morningglory: 0
[1]; [21]
  Plant response rating (0 to 100), Morningglory: 70
[1]; [22]
  Plant response rating, Morningglory: 50
[2]; [19]
  Plant response rating, Cocklebur: 20
[2]; [20]
  Plant response rating, Cocklebur: 0
[2]; [21]
  Plant response rating (0 to 100), Cocklebur: 100
[2]; [22]
  Plant response rating, Cocklebur: 50
[3]; [19]
  Plant response rating, Johnsongrass: 90
[3]; [20]
  Plant response rating, Johnsongrass: 60
[3]; [21]
  Plant response rating (0 to 100), Johnsongrass: 100
[3]; [22]
  Plant response rating, Johnsongrass: 100
[4]; [19]
  Plant response rating, Lambsquarters: 100
[4]; [20]
  Plant response rating, Lambsquarters: 100
[4]; [21]
  Plant response rating (0 to 100), Lambsquarters: 100
[4]; [22]
  Plant response rating, Lambsquarters: 100
Nightshade; Rate 62 g/ha, scale 0 to 100
  Plant response rating, Nightshade: 10
Nightshade; [19]
  Plant response rating, Nightshade: 90
Nightshade; Rate 250 g/ha, scale 0 to 100, 0 no effect, 100 complete control
  Plant response rating, Nightshade: 100
[5]; [19]
  Plant response rating, Surinam grass: 80
[5]; [20]
  Plant response rating, Surinam grass: 20
[5]; [21]
  Plant response rating (0 to 100), Surinam grass: 100
[5]; [22]
  Plant response rating, Surinam grass: 100
[6]; [19]
  Plant response rating, Nutsedge: 0
[6]; [20]
  Plant response rating, Nutsedge: 0
[6]; [21]
  Plant response rating (0 to 100), Nutsedge: 0
[6]; [22]
  Plant response rating, Nutsedge: 0
[7]; [19]
  Plant response rating, Crabgrass: 100
[7]; [20]
  Plant response rating, Crabgrass: 100
[7]; [21]
  Plant response rating (0 to 100), Crabgrass: 100
[7]; [22]
  Plant response rating, Crabgrass: 100
[8]; [19]
  Plant response rating, Velvetleaf: 20
[8]; [20]
  Plant response rating, Velvetleaf: 0
[8]; [21]
  Plant response rating (0 to 100), Velvetleaf: 100
[8]; [22]
  Plant response rating, Velvetleaf: 100
[9]; [19]
  Plant response rating, Cupgrass, Woolly: 100
[9]; [20]
  Plant response rating, Cupgrass, Woolly: 80
[9]; [21]
  Plant response rating (0 to 100), Cupgrass, Woolly: 100
[9]; [22]
  Plant response rating, Cupgrass, Woolly: 100
Soybean (Glycine max); [19]
  Plant response rating, Soybean: 60
Soybean (Glycine max); [20]
  Plant response rating, Soybean: 0
Soybean (Glycine max); [21]
  Plant response rating (0 to 100), Soybean: 100
Soybean (Glycine max); [22]
  Plant response rating, Soybean: 90
Sunflower [10]
  Plant response rating, Sunflower: 30
[11]; [19]
  Plant response rating, Bermudagrass: 100
[11]; [20]
  Plant response rating, Bermudagrass: 100
[11]; [21]
  Plant response rating (0 to 100 where 0 is no effect and 100 is complete control), Bermudagrass: 100
[11]; [22]
  Plant response rating, Bermudagrass: 100
[12]; [19]
  Plant response rating, Goosegrass: 100
[12]; [20]
  Plant response rating, Goosegrass: 100
[12]; [21]
  Plant response rating (0 to 100), Goosegrass: 100
[12]; [22]
  Plant response rating, Goosegrass: 100
Corn (Zea mays); [19]
  Plant response rating, Corn: 20
Corn (Zea mays); [20]
  Plant response rating, Corn: 0
Corn (Zea mays); [21]
  Plant response rating (0 to 100), Corn: 90
Corn (Zea mays); [22]
  Plant response rating, Corn: 70
[13]; [19]
  Plant response rating, Foxtail, Giant: 100
[13]; [20]
  Plant response rating, Foxtail, Giant: 20
[13]; [21]
  Plant response rating (0 to 100), Foxtail, Giant: 100
[13]; [22]
  Plant response rating, Foxtail, Giant: 60
[14]; [19]
  Plant response rating, Pigweed: 50
[14]; [20]
  Plant response rating, Pigweed: 20
[14]; [21]
  Plant response rating (0 to 100), Pigweed: 100
[14]; [22]
  Plant response rating, Pigweed: 60
Kochia (Kochia scoparia); [19]
  Plant response rating, Kochia: 100
Kochia (Kochia scoparia); [20]
  Plant response rating, Kochia: 100
Kochia (Kochia scoparia); [21]
  Plant response rating (0 to 100), Kochia: 100
Kochia (Kochia scoparia); [22]
  Plant response rating, Kochia: 100
Sunflower [15]
  Plant response rating (0 to 100), Sunflower: 70
[16]; Rate 250 g/ha
  Flatsedge plant response rating: 100
[16]; Rate 500 g/ha
  Flatsedge plant response rating: 100
[16]; Rate 62 g/ha
  Plant response rating, Flatsedge: 100
[16]; Rate 125 g/ha
  Plant response rating, Flatsedge: 100
[17]; Rate 250 g/ha
  Barnyardgrass plant response rating: 20
[17]; Rate 500 g/ha
  Barnyardgrass plant response rating: 80
[17]; Rate 62 g/ha
  Plant response rating, Barnyardgrass: 0
[17]; Rate 125 g/ha
  Plant response rating, Barnyardgrass: 20
[18]; Rate 250 g/ha
  Ducksalad plant response rating: 60
[18]; Rate 500 g/ha
  Ducksalad plant response rating: 90
[18]; Rate 62 g/ha
  Plant response rating, Ducksalad: 0
[18]; Rate 125 g/ha
  Plant response rating, Ducksalad: 0
